Assay results reported in patent EP1052287A2, “Complex for transferring an anionic substance of interest into a cell” (TRANSGENE S.A., priority 1999, dated 2000).
Where no end group is shown, it is not given here.

How the values were obtained:
[1] = Size of peptide/DNA complexes by quasi-elastic light scattering; format: physicochemical; details: complexes (-/+) [1:4], 6 µg DNA, 500 µl
Protocol: Sizes of complexes prepared with a plasmid DNA (PTG11033; see EP-A 890 32, 9.6 kb) and the C1qA (4-26) peptide (SEQ ID NO:1)see Table I) were evaluated. Complexes were formulated either in 5% glucose or in ultrafiltrated foetal calf serum (YM10 Amicon membrane). Formulation was made in 500 µl buffer, with 6 µg DNA and the quantity of peptide necessary to form a [1:4], [-:+] complex. As a control a polylysine SV40 NLS peptide was used. […] When oxidized, the dimerized C1qA peptide could form even smaller complexes, whatever the formulation buffer used. The reasonable sizes obtained in ultrafiltrated serum with C1qA peptides is an advantage for the use of this peptide rather than polylysine derivatives.
Complexes (-/+):[1:4], 6 µg DNA, 500 µl. Size measures: quasi-elastic light scattering, COULTER N4+.

plasmid pTGl1033 = assay: Gel retardation assay, agarose gel electrophoresis (Example 2); format: binding
Protocol: (§1) Gel retardation assay was performed with C1qA (4-26) (SEQ ID NO:1) in several buffers: PBS, TBS, 5% glucose, or ultrafiltrated serum (YM10 Amicon membrane). DNA and peptides have been mixed at charge ratios [-/+] of [1:4], [1:1] and [1:0.2].

plasmid pTG11236 = assay: Gel retardation assay (Example 4); format: binding
Protocol: as §1
Gel retardation assay was performed with peptides SEQ ID NO: 1, SEQ ID NO: 2, SEQ ID NO: 3, SEQ ID NO: 7, SEQ ID NO: 8, SEQ ID NO: 9, SEQ ID NO: 10 , SEQ ID NO: 11, SEQ ID NO: 12, SEQ ID NO: 13, in various media : 5% glucose, 6% Elohes (Fresenius Kabi) and ultrafiltrated serum (YM10 Amicon membrane). Technical conditions are similar to Example 2. DNA and peptides have been mixed at 0.36, 1.44 and 1.8 nmoles of peptide per µg of DNA which correspond to the following charge ratios N/P: […]

[2] = 1.44 nmoles of peptide per µg of DNA
[3] = 1.8 nmoles of peptide per µg of DNA

Substance | Sizes in 5% glucose [1] | Sizes in ultrafiltrated serum [1] | gel retardation of DNA (plasmid pTGl1033; charge ratio [-/+] [1:1]) | gel retardation of DNA (plasmid pTGl1033; charge ratio [-/+] [1:4], PBS, TBS, 5% glucose or ultrafiltrated serum, 0.8% agarose, TBE) | retardation of the complexed plasmid DNA (plasmid pTG11236; [2]) | retardation of the complexed plasmid DNA (plasmid pTG11236; [3])
SP-1052 oxidized: oxidized, dimerized C1qA (4-26) peptide (CRAPDGKKGEAGRPGRRGRPGLK; also: oxidized disulfide-linked dimer; UniProt P02745 26-48, looked up, fragment) | 200 nm | 300 nm |  |  |  | 
SEQ ID NO: 1: synthetic polypeptide consisting of SEQ ID NO:1, C1qA (4-26) of the C1q subunit of C1 complement factor (CRAPDGKKGEAGRPGRRGRPGLK; UniProt P02745 26-48, looked up, fragment) | 1µm | 300-500 nm | significative retardation | strong association of DNA to the peptides | complete retardation | complete retardation
SEQ ID NO: 3: C1qA (76-92) peptide (GIKGTKGSPGNIKDQPR; UniProt P02745 98-114, looked up, fragment) |  |  |  |  | complete retardation | complete retardation
